Experiments:
[1] = biological target: T1, Human IBAT Transporter (Homo sapiens, UniProt Q12908); assay: Electrogenic transport in Xenopus oocytes expressing IBAT; type: cell-based; settings: relative to glycodeoxycholate, test compound 100 μM
T1 sequence (Q12908 1-348): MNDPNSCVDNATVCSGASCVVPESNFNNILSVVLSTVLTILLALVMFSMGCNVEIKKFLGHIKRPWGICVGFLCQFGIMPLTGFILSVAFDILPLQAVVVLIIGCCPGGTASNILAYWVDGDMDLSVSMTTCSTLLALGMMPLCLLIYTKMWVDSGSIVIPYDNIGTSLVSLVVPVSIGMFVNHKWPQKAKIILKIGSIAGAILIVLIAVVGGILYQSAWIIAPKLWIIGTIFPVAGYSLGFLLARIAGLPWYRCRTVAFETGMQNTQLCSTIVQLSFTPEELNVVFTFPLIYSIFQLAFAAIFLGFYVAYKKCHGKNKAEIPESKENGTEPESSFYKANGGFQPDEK
Procedure: Human IBAT Transporter cDNAs were subcloned into a modified pGEM plasmid that contains 5′ and 3′ untranslated sequences from the Xenopus β-actin gene. These sequences increase RNA stability and protein expression. Plasmid cDNA was linearized and used as template for in vitro transcription (Epicentre Technologies transcription kit, 4:1 methylated:non-methylated GTP).
Xenopus oocyte isolation. Xenopus laevis frogs were anesthetized by immersion in Tricaine ([…] in deionized water) for 15 min. Oocytes were removed and digested in frog ringer solution (90 mM NaCl, 2 mM KCl, 1 mM MgCl2, 10 mM NaHEPES, pH 7.45, no CaCl2) with 1 mg/mL collagenase (Worthington Type 3) for 80-100 min with shaking. The oocytes were washed 6 times, and the buffer changed to frog ringer solution containing CaCl2(1.8 mM). Remaining follicle cells were removed if necessary. Cells were incubated at 16° C., and each oocyte injected with […] RNA in […] solution.
Electrophysiology measurements. Transport currents were measured 2-14 days after injection, using a standard two-electrode electrophysiology set-up (Geneclamp 500 amplifier, Digidata 1320/PCLAMP software and ADInstruments hardware and software were used for signal acquisition). Electrodes ([…]) were microfabricated using a Sutter Instrument puller and filled with 3M KCl. The bath was directly grounded (transporter currents were less than 0.3 μA). Bath flow was controlled by an automated perfusion system (ALA Scientific Instruments, solenoid valves).
For transporter pharmacology, oocytes were clamped at −60 to −90 mV, and continuous current measurements acquired using PowerLab Software and an ADInstruments digitizer. Current signals were lowpass filtered at 20 Hz and acquired at 4-8 Hz. All bath and drug-containing solutions were frog ringers solution containing CaCl2. Drugs were applied for 10-30 seconds until the induced current reached a new steady-state level, followed by a control solution until baseline currents returned to levels that preceded drug application. […]

[2] = cited from earlier work; for half-life: human, in vivo

Molecule	% Max. (GDC) response [1] [%]	half-life [2] [h]	oral bioavailability of levodopa ([2]; from conventional formulations of levodopa/carbidopa (e.g. Sinemet))	administered dose reaching the CNS intact ([2]; in patients)
CC(CCC(=O)NC(Cc1ccc(O)c(O)c1)C(=O)O)C1CCC2C3C(O)CC4CC(O)CCC4(C)C3CC(O)C12C (stereo not shown) [(101), Cholyl-DOPA]	0			
C[C@H](CCC(=O)N[C@@H](Cc1ccc2oc(=O)oc2c1)C(=O)O)[C@H]1CC[C@H]2[C@@H]3[C@H](O)C[C@@H]4C[C@H](O)CC[C@]4(C)[C@H]3C[C@H](O)[C@]12C [(104), Cholyl-Dopa-(3,4-carbonate)]	25			
C[C@@](Cc1ccc(O)c(O)c1)(NN)C(=O)O [carbidopa]		~2		
N[C@@H](Cc1ccc(O)c(O)c1)C(=O)O [levodopa, L-dihydroxyphenylalanine]		~2	84-99%	less than 1%
Cholyl-DOPA-(4-pivaloyloxymethyl) [(102)]	104			

— US20020151526A1, “Bile-acid prodrugs of L-dopa and their use in the sustained treatment of parkinsonism” (priority 2000, published 2002)
